These results are taken from patent publication US20110150798A1, “COMPOSITIONS AND METHODS FOR INCREASING CELLULAR FAR AND BLEACHING SKIN” (priority 2009, published 2011).

One test has as its system keratinocytes. Put plainly: Lipid production in keratinocytes, Oil Red O staining. The class given is cell-based. The note with it: 2.5 uM, 48 hours, compared to DMSO control, FIG. 1. The source says:
FIG. 1 is a photograph of keratinocytes treated with troglitazone and stained for lipids.

The subject of another test is human preadipocytes. The test is described as follows: Lipid production in preadipocytes, Oil Red O staining. The class given is cell-based. The settings on record: 1.1 uM, about 48 hours, FIG. 2 and FIG. 3. An excerpt: FIG. 2 is a photograph of human preadipocytes treated with troglitazone and stained for lipids. FIG. 3 is a photograph of human preadipocytes treated with troglitazone and stained for lipids.

With `Cc1c(C)c2c(c(C)c1O)CCC(C)(COc1ccc(CC3SC(=O)NC3=O)cc1)O2` (racemic) [troglitazone, (RS)-5-(4-[(6-hydroxy-2,5,7,8-tetramethylchroman-2-yl)methoxy]benzyl)thiazolidine-2,4-dione], in the test on keratinocytes, the “lipid production in the cells (lipid droplets stained with Oil Red O)” value is “increase in lipid production”. Also, the “lipid production (quantity and size of lipid droplets stained with Oil Red O)” value with human preadipocytes is listed as “increase in the lipid production”.
